Experiment: wn = mass fraction of the nth substance listed
Conditions: Liquid, Vibrating tube method

CC(=O)c1ccccc1 [acetophenone] + CCCCCCCCO
mass density [kg/m3]
Conditions | 100 kPa | 10000 kPa | 15000 kPa | 20000 kPa | 25000 kPa | 30000 kPa | 35000 kPa | 40000 kPa | 45000 kPa | 50000 kPa
298.15 K, w2 = 0.1075 | 996 | 1001.7 | 1004.5 | 1007.2 | 1009.8 | 1012.3 | 1014.9 | 1017.3 | 1019.7 | 1022.1
298.15 K, w2 = 0.2132 | 971.2 | 977 | 979.8 | 982.5 | 985.2 | 987.7 | 990.3 | 992.8 | 995.1 | 997.5
298.15 K, w2 = 0.3172 | 947.9 | 953.8 | 956.6 | 959.4 | 962 | 964.7 | 967.2 | 969.7 | 972.2 | 974.6
298.15 K, w2 = 0.4195 | 926.2 | 932.2 | 935.1 | 937.9 | 940.6 | 943.2 | 945.8 | 948.3 | 950.7 | 953.2
298.15 K, w2 = 0.5201 | 905.9 | 911.9 | 914.9 | 917.6 | 920.3 | 923 | 925.6 | 928.1 | 930.6 | 933
298.15 K, w2 = 0.6192 | 886.6 | 892.7 | 895.6 | 898.4 | 901.2 | 903.8 | 906.4 | 909 | 911.4 | 913.8
298.15 K, w2 = 0.7166 | 868.6 | 874.7 | 877.6 | 880.4 | 883.2 | 885.9 | 888.5 | 891 | 893.5 | 895.9
298.15 K, w2 = 0.8126 | 851.8 | 857.9 | 860.9 | 863.7 | 866.5 | 869.2 | 871.8 | 874.2 | 876.8 | 879.2
298.15 K, w2 = 0.907 | 836 | 842.1 | 845.1 | 848 | 850.7 | 853.4 | 855.9 | 858.5 | 861 | 863.3
318.15 K, w2 = 0.1075 | 978.9 | 985.3 | 988.3 | 991.3 | 994.1 | 997 | 999.5 | 1002.2 | 1004.8 | 1007.3
318.15 K, w2 = 0.2132 | 954.5 | 960.9 | 964 | 967 | 969.9 | 972.7 | 975.4 | 978 | 980.7 | 983.2
318.15 K, w2 = 0.3172 | 931.3 | 937.8 | 940.9 | 943.9 | 946.9 | 949.7 | 952.4 | 955.1 | 957.7 | 960.3
318.15 K, w2 = 0.4195 | 910 | 916.6 | 919.7 | 922.8 | 925.7 | 928.6 | 931.4 | 934 | 936.8 | 939.3
318.15 K, w2 = 0.5201 | 890 | 896.7 | 899.8 | 902.9 | 905.9 | 908.7 | 911.5 | 914.2 | 916.9 | 919.5
318.15 K, w2 = 0.6192 | 871.1 | 877.8 | 881.1 | 884.1 | 887.1 | 890 | 892.7 | 895.4 | 898.1 | 900.7
318.15 K, w2 = 0.7166 | 853.4 | 860.2 | 863.3 | 866.4 | 869.5 | 872.4 | 875.2 | 877.9 | 880.5 | 883.1
318.15 K, w2 = 0.8126 | 837 | 843.9 | 847 | 850.2 | 853.2 | 856 | 858.9 | 861.6 | 864.3 | 866.8
318.15 K, w2 = 0.907 | 821.6 | 828.3 | 831.6 | 834.7 | 837.7 | 840.6 | 843.4 | 846.1 | 848.8 | 851.3
348.15 K, w2 = 0.1075 | 952.5 | 959.7 | 963.2 | 966.6 | 969.9 | 973.1 | 976.1 | 979.2 | 982 | 984.8
348.15 K, w2 = 0.2132 | 928.4 | 935.9 | 939.4 | 942.8 | 946.1 | 949.2 | 952.3 | 955.3 | 958.2 | 961
348.15 K, w2 = 0.3172 | 905.7 | 913.1 | 916.7 | 920.1 | 923.5 | 926.7 | 929.8 | 932.9 | 935.9 | 938.6
348.15 K, w2 = 0.4195 | 884.7 | 892.4 | 896 | 899.5 | 902.9 | 906.2 | 909.3 | 912.3 | 915.3 | 918.2
348.15 K, w2 = 0.5201 | 865.1 | 872.8 | 876.5 | 880 | 883.4 | 886.6 | 889.6 | 892.8 | 895.9 | 898.7
348.15 K, w2 = 0.6192 | 846.9 | 854.6 | 858.3 | 861.8 | 865.3 | 868.5 | 871.7 | 874.8 | 877.8 | 880.7
348.15 K, w2 = 0.7166 | 829.6 | 837.4 | 841.1 | 844.6 | 848 | 851.3 | 854.5 | 857.6 | 860.5 | 863.4
348.15 K, w2 = 0.8126 | 813.7 | 821.5 | 825.2 | 828.7 | 832.1 | 835.4 | 838.6 | 841.7 | 844.6 | 847.5
348.15 K, w2 = 0.907 | 798.4 | 806.4 | 810.2 | 813.8 | 817.2 | 820.4 | 823.6 | 826.7 | 829.7 | 832.5

Source: the NIST ThermoML archive (doi:10.1021/je049930e)
